Reference: patent publication US20070128217A1 (priority 2003, published 2007)

Columns and labels:
[1] = test system: antibodies in sera from SARS patients (sera 1a, 1b, 2, 6, 37, 62, London, SARS-yellow, SARS-green); format: binding, human; design: Binding of serum 6 to linear peptides of protein X1 of SARS-CoV Urbani / Binding of serum 37 to linear peptides of protein X1 of SARS-CoV Urbani / Binding of serum 6 to looped/cyclic peptide (PEPSCAN-ELISA) / Binding of serum 37 to looped/cyclic peptide (PEPSCAN-ELISA) / Binding of serum 37 to looped/cyclic peptides of protein X1 of SARS-CoV Urbani / Binding of serum 6 to linear peptides of protein X2 / Binding of serum 37 to linear peptides of protein X2 / Binding of serum 37 to looped/cyclic peptides of protein X2 of SARS-CoV Urbani / Binding of serum 6 to linear peptides of protein M of SARS-CoV Urbani / Binding of serum 37 to linear peptides of protein M of SARS-CoV Urbani / Binding of serum 6 to looped/cyclic peptides of protein M of SARS-CoV Urbani / Binding of serum 37 to looped/cyclic peptides of protein M of SARS-CoV Urbani / Binding of serum 6 to linear peptides of protein X3 of SARS-CoV Urbani / Binding of serum 37 to linear peptides of protein X3 of SARS-CoV Urbani / Binding of serum 37 to looped/cyclic peptides of protein X3 of SARS-CoV Urbani / Binding of serum 6 to linear peptides of protein X4 of SARS-CoV Urbani / Binding of serum 37 to linear peptides of protein X4 of SARS-CoV Urbani / Binding of serum 37 to looped/cyclic peptides of protein X4 of SARS-CoV Urbani / Binding of serum 6 to linear peptides of protein X5 of SARS-CoV Urbani / Binding of serum 37 to linear peptides of protein X5 of SARS-CoV Urbani / Binding of serum 37 to looped/cyclic peptides of protein X5 of SARS-CoV Urbani / Binding of serum 6 to linear peptides of protein N of SARS-CoV Urbani / Binding of serum 37 to linear peptides of protein N of SARS-CoV Urbani / Binding of serum 6 to linear peptide (PEPSCAN-ELISA) / Binding of serum 1a to looped/cyclic peptides of protein N of SARS-CoV Urbani / Binding of serum 1b to looped/cyclic peptides of protein N of SARS-CoV Urbani / Binding of serum 2 to looped/cyclic peptides of protein N of SARS-CoV Urbani / Binding of serum 6 to looped/cyclic peptides of protein N of SARS-CoV Urbani / Binding of serum 37 to looped/cyclic peptides of protein N of SARS-CoV Urbani / Binding of serum 62 to looped/cyclic peptides of protein N of SARS-CoV Urbani / Binding of serum London to looped/cyclic peptides of protein N of SARS-CoV Urbani / Binding of serum SARS-green to looped/cyclic peptides of protein N of SARS-CoV Urbani: unit not given here
[2] = test system: control sera (pooled serum of ten healthy LUMC hospital workers; commercial negative donor pooled serum from the Dutch bloodbank); format: binding, human; design: Binding of Control serum LUMC to linear peptides / Binding of Control serum Blood-bank to linear peptides / Binding of Control serum LUMC to looped peptides / Binding of Control Serum Blood-Bank to Looped peptides / Binding of Control serum LUMC to linear peptides of the protein M of SARS-CoV Urbani / Binding of Control serum Blood-bank to linear peptides of the protein M of SARS-CoV Urbani / Binding of Control serum LUMC to looped peptides of the protein M of SARS-CoV Urbani / Binding of Control Serum Blood-Bank to Looped peptides of the protein M of SARS-CoV Urbani: unit not given here
[3] = test system: rabbit serum obtained by immunizing a rabbit with the SARS-CoV strain Frankfurt 1; format: binding; design: Binding of a rabbit serum to linear peptides / Binding of a rabbit serum to looped peptides / Rabbit serum linear peptides / Rabbit serum looped peptides / Binding of a rabbit serum to linear peptides of protein N of SARS-CoV Urbani (Rabbit serum linear peptides) / Binding of a rabbit serum to looped/cyclic peptides of protein N of SARS-CoV Urbani (Rabbit serum looped peptides): unit not given here

ASLPFGWLVIGVAFL
Binding of serum 1a to linear peptides of protein X1 of SARS-CoV Urbani [1]: 0.7
Binding of serum 1a to looped/cyclic peptide (PEPSCAN-ELISA) [1]: 0.5
Binding of serum 1b to linear peptides of protein X1 of SARS-CoV Urbani [1]: 0.5
Binding of serum 1b to looped/cyclic peptide (PEPSCAN-ELISA) [1]: 0.3
Binding of serum 2 to linear peptides of protein X1 of SARS-CoV Urbani [1]: 0.6
Binding of serum 2 to looped/cyclic peptide (PEPSCAN-ELISA) [1]: 0.4
Binding of serum 6 to linear peptides of protein X1 of SARS-CoV Urbani [1]: 0.5
Binding of serum 6 to looped/cyclic peptide (PEPSCAN-ELISA) [1]: 0.2
Binding of serum 37 to linear peptides of protein X1 of SARS-CoV Urbani [1]: 0.6
Binding of serum 37 to looped/cyclic peptide (PEPSCAN-ELISA) [1]: 0.3
Binding of serum 62 to linear peptides of protein X1 of SARS-CoV Urbani [1]: 0.6
Binding of serum 62 to looped/cyclic peptide (PEPSCAN-ELISA) [1]: 0.4
Binding of serum London to linear peptides of protein X1 of SARS-CoV Urbani [1]: 0.3
Binding of serum London to looped/cyclic peptide (PEPSCAN-ELISA) [1]: 0.2
Binding of serum SARS-green to linear peptides of protein X1 of SARS-CoV Urbani [1]: 0.2
Binding of serum SARS-green to looped/cyclic peptide (PEPSCAN-ELISA) [1]: 0.2
Binding of serum SARS-yellow to linear peptides of protein X1 of SARS-CoV Urbani [1]: 0.4
Binding of serum SARS-yellow to looped/cyclic peptide (PEPSCAN-ELISA) [1]: 0.3
Binding of Control Serum Blood-Bank to Looped peptides [2]: 0.4
Binding of Control serum Blood-bank to linear peptides [2]: 0.6
Binding of Control serum LUMC to linear peptides [2]: 0.6
Binding of Control serum LUMC to looped peptides [2]: 0.6
Binding of a rabbit serum to linear peptides [3]: 1.4
Binding of a rabbit serum to looped peptides [3]: 0.3

IRQEEVQQELYSPLF
Binding of serum 1a to linear peptides of protein X4 of SARS-CoV Urbani [1]: 0.7
Binding of serum 1b to linear peptides of protein X4 of SARS-CoV Urbani [1]: 0.6
Binding of serum 2 to linear peptides of protein X4 of SARS-CoV Urbani [1]: 0.5
Binding of serum 6 to linear peptides of protein X4 of SARS-CoV Urbani [1]: 0.5
Binding of serum 37 to linear peptides of protein X4 of SARS-CoV Urbani [1]: 0.8
Binding of serum 62 to linear peptides of protein X4 of SARS-CoV Urbani [1]: 0.8
Binding of serum London to linear peptides of protein X4 of SARS-CoV Urbani [1]: 0.7
Binding of serum SARS-green to linear peptides of protein X4 of SARS-CoV Urbani [1]: 0.8
Binding of serum SARS-yellow to linear peptides of protein X4 of SARS-CoV Urbani [1]: 0.7
Recognition of the peptide by sera of SARS-CoV infected individuals, and form (linear, looped/cyclic) in which it is recognized [1]: recognized in looped/cyclic form
Binding of Control Serum Blood-Bank to Looped peptides [2]: 0.7
Binding of Control serum Blood-bank to linear peptides [2]: 0.7
Binding of Control serum LUMC to linear peptides [2]: 0.7
Binding of Control serum LUMC to looped peptides [2]: 0.9
Rabbit serum linear peptides [3]: 0.4
Rabbit serum looped peptides [3]: 0.4

EITVATSRTLSYYKL
Binding of serum 1a to linear peptides of protein M of SARS-CoV Urbani [1]: 0.7
Binding of serum 1a to looped/cyclic peptides of protein M of SARS-CoV Urbani [1]: 0.6
Binding of serum 1b to linear peptides of protein M of SARS-CoV Urbani [1]: 0.5
Binding of serum 1b to looped/cyclic peptides of protein M of SARS-CoV Urbani [1]: 0.4
Binding of serum 2 to linear peptides of protein M of SARS-CoV Urbani [1]: 0.6
Binding of serum 2 to looped/cyclic peptides of protein M of SARS-CoV Urbani [1]: 0.5
Binding of serum 6 to linear peptides of protein M of SARS-CoV Urbani [1]: 0.4
Binding of serum 6 to looped/cyclic peptides of protein M of SARS-CoV Urbani [1]: 0.5
Binding of serum 37 to linear peptides of protein M of SARS-CoV Urbani [1]: 0.8
Binding of serum 37 to looped/cyclic peptides of protein M of SARS-CoV Urbani [1]: 0.5
Binding of serum 62 to linear peptides of protein M of SARS-CoV Urbani [1]: 0.9
Binding of serum 62 to looped/cyclic peptides of protein M of SARS-CoV Urbani [1]: 0.5
Binding of serum London to linear peptides of protein M of SARS-CoV Urbani [1]: 0.3
Binding of serum London to looped/cyclic peptides of protein M of SARS-CoV Urbani [1]: 0.2
Binding of serum SARS-green to linear peptides of protein M of SARS-CoV Urbani [1]: 0.4
Binding of serum SARS-green to looped/cyclic peptides of protein M of SARS-CoV Urbani [1]: 0.3
Binding of serum SARS-yellow to linear peptides of protein M of SARS-CoV Urbani [1]: 0.1
Binding of serum SARS-yellow to looped/cyclic peptides of protein M of SARS-CoV Urbani [1]: 0.5
Binding of Control Serum Blood-Bank to Looped peptides of the protein M of SARS-CoV Urbani [2]: 0.7
Binding of Control serum Blood-bank to linear peptides of the protein M of SARS-CoV Urbani [2]: 0.7
Binding of Control serum LUMC to linear peptides of the protein M of SARS-CoV Urbani [2]: 0.4
Binding of Control serum LUMC to looped peptides of the protein M of SARS-CoV Urbani [2]: 0.6
Rabbit serum linear peptides [3]: 0.7
Rabbit serum looped peptides [3]: 0.1
